pEC50: −log10 of the molar value.
Experiments:
ERR-α [1] = molecular target: T1, ERR-α (Homo sapiens, UniProt P11474); assay: LC/MS dissociation rate with 20-fold excess Compound 2 as competing ligand; format: binding; parameters: made in house; host or cells: Spodoptera frugiperda (Sf9) insect cells, baculovirus; settings: ligand 1 μM, ERR-α 0.5 μM, competing ligand 20 μM, 37° C., assumed first order
T1 sequence (P11474 with tags, fused parts or gaps): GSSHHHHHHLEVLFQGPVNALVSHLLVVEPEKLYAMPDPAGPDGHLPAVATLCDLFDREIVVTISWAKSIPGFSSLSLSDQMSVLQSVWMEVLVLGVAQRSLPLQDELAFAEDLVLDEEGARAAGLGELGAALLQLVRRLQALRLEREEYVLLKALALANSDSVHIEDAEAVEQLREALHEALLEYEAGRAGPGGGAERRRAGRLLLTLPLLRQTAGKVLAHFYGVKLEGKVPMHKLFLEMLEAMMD
From the text: The progress of the reaction was also expressed as a fraction of the area observed for the complex of ERR-α and the competing ligand over the sum of total area for the complex of ERR-α with the ligand and the complex of ERR-α with the competing ligand.
where k is the apparent rate constant.

ERR-α [2] = molecular target: T1, ERR-α; assay: biochemical; settings: pH 7.9, read-out: ka
Experimental: To monitor the kinetics of association and dissociation for ligands that formed a complex with ERR-α by forming a covalent bond to Cys325 of ERR-α, LC/MS detection was employed. LC analysis was performed on an Agilent 1100 LC system that was in line with an Agilent MSD TOF for mass detection. Software provided by the vendor was used to deconvolute the ESI positive ion quadrupole time-of-flight spectra. To measure association rates, typically a 1 μM ERR-α solution was mixed with an equal volume of a 2 μM ligand solution. […]
For the apo form of ERR-α, a mass of 27042 was detected, corresponding to an amino acid sequence where the initiator methionine is cleaved followed by N-terminal acetylation.
Association and dissociation rates for ligands were determined by fitting fractional values obtained for the progress of the reaction as a function of time using a single exponential equation progress of reaction=e^−kt
where k is the apparent rate constant. For the dissociation experiments, the reaction is assumed to be first order and dissociation rates, kd, are expressed as s^−1. For the association rates, k^a, the reaction is assumed to be second order and the rates are expressed as M^−1s^−1 by dividing the apparent rate constants by the concentration of the protein determined by experimental conditions (Table 4).

ERR-α [3] = molecular target: ERR-α (Homo sapiens, UniProt P11474); assay: biochemical
Experimental: For TR-FRET measurements, the reaction was buffered in 25 mM Tris pH 8, 2.5 mM Hepes, 20 mM KCl, 1 mM DTT, and 0.05 mg/mL BSA (-lipids). […] Reactions were allowed to reach equilibrium at 25° C. for 4-18 hours before collecting data on the Analyst from LJL Biosystems (Molecular Devices Sunnyvale, Calif.).
Target sequence in this assay (P11474 with tags, fused parts or gaps limits assumed): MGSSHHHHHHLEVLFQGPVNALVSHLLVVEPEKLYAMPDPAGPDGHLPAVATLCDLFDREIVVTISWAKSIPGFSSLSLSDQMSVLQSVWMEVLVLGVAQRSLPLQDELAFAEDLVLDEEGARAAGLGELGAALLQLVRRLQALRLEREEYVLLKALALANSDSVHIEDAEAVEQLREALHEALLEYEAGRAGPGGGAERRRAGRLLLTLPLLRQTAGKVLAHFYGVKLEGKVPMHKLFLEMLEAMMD

SMILES	kd (ERR-α [1]) [s⁻¹]	kon (ERR-α [2]) [M⁻¹ s⁻¹]	pEC50 (ERR-α [3])
COc1cc(/C=C2\SC(=O)NC2=O)ccc1Oc1ccc(C#N)cc1C(F)(F)F [Compound 1]	1.1e-05	6600	–
COC(=O)c1ccc(Oc2ccc(/C=C3\SC(=O)NC3=O)cc2OC)c(C(F)(F)F)c1 [Compound 2]	–	–	7.96
COc1cc(/C=C2\SC(N3CCN(C)CC3)=NC2=O)ccc1Oc1ccc(C#N)cc1C(F)(F)F [Compound 3]	1.53e-05	–	–

The next lines start with results.

kd (ERR-α [1]) [s⁻¹]	SMILES	kon (ERR-α [2]) [M⁻¹ s⁻¹]	pEC50 (ERR-α [3])
2.19e-05	CN1CCN(C2=NC(=O)/C(=C/c3ccc(Oc4ccc(C#N)cc4C(F)(F)F)c(F)c3)S2)CC1 [Compound 4]	–	–
2.05e-05	COc1cc(/C=C2\SC(N)=NC2=O)ccc1Oc1ccc(C#N)cc1C(F)(F)F [Compound 5]	–	–
